# In paper PMC8512011, “A Semi Rigid Novel Hydroxamate AMPED-Based Ligand for ^89Zr PET Imaging” (Molecules, 2021):
# “Also recorded” adds a separate entry of the source.
# Experiments:
# [1] = Ex vivo biodistribution (tracer accumulation in organs, γ-counter) 24 h p.i.; set-up: species or system female athymic Nude-Foxn1nu/nu mice; conditions: i.v. tail vein, n = 3, ± SD
# Protocol: (§1) In order to study the biodistribution and the in vivo stability of the ^89Zr-AAZTHAG, 8 weeks old pathogen-free female athymic Nude-Foxn1nu/nu mice (Charles River Laboratories, Sulzfeld, Germany) (n = 3) were injected via a catheter in the tail vein with 2.9 ± 0.1 MBq of ^89Zr-AAZTHAG in 300 μL NaCl 0.9% solution, and imaged at different time points (30 min, 3 h, 6 h, 9 h, 12 h, 24 h) via PET/CT static acquisition using an Inveon Small Animal PET/CT scanner (Siemens, Knoxville, TN, USA).
# Biodistribution studies were also performed to assess the in vivo distribution of the ^89Zr-AAZTHAG complex and evaluate its in vivo stability. After sacrifice, the mice by anesthesia, blood, and other selected organs were collected, weighed, and the activity was measured by a γ-counter. The tracer accumulation in selected organs was expressed as a percentage of injected dose per gram of tissue (%ID/g).
# [2] = In vitro stability of ^89Zr complexes in formulation buffer (radio-TLC / iTLC); type: physicochemical; conditions: formulation buffer (3 mM gentisic acid + 0.25 M NaOAc, pH 5.5), 37 °C
# Protocol: (§2) Stability studies were performed on ^89Zr labeled AAZTHAS and AAZTHAG to test the effect of the pendant arm length on complex stability. The stability of the two ^89Zr-complexes was investigated by radio-TLC after incubation for 72 h at 37 °C in formulation buffer, EDTA 5 mM (1000-fold excess), and human serum (HS).
# (§3) After the purification step and analysis of the radioactive complex via radio-HPLC, the stability assessment of the complex at different time points and in different solutions was carried out. ^89Zr-AAZTHAS and ^89Zr-AAZTHAG were dissolved in formulation buffer, EDTA 5 mM, and human serum in 1:5 v/v ratio and were incubated at 37 °C up to 96 h. […] At each time point the stability was evaluated by radio-iTLC (Elution solution 1) using an instant thin-layer chromatographic strip (iTLC, Agilent).
# [3] = Small animal PET/CT static scans at different time points; type: in vivo, healthy female nude mice; conditions: six time points 30 min to 24 h, n = 3
# Protocol: Based on the good preliminary in vitro stability results, we investigated the behavior of ^89Zr-AAZTHAG in vivo in healthy female nude mice (n = 3) by acquiring PET/CT images at six different time points (30 min, 3 h, 6 h, 9 h, 12 h, and 24 h), and mice were then sacrificed 24 h p.i. to perform a biodistribution study.
# as §1
# [4] = In vitro stability of ^89Zr complexes in EDTA solution (transchelation challenge, radio-TLC / iTLC); type: physicochemical; set-up: dose or concentration left out as unconfirmed; conditions: 37 °C
# Protocol: Stability studies were performed on ^89Zr labeled AAZTHAS and AAZTHAG to test the effect of the pendant arm length on complex stability. […]
# as §3
# [5] = In vitro stability of ^89Zr complexes in human serum (radio-TLC / iTLC); type: in vitro ADME; conditions: for % of ^89Zr complexed over total activity: human serum (HS)
# Protocol: as §2, §3
structure (smiles),measurement,setting,value
"CN(O)C(=O)CCCC(=O)NC1(C)CN(C(=O)CCCC(=O)N(C)O)CCN(C(=O)CCCC(=O)N(C)O)C1 [^89Zr-AAZTHAG, metal not drawn]",Radioactivity accumulated in bladder,[1]; Bladder,0.049 ± 0.010 %ID/g
same,Radioactivity accumulated in blood,[1]; Blood,0.007 ± 0.005 %ID/g
same,Radioactivity accumulated in brain,[1]; Brain,0.002 ± 0.001 %ID/g
same,Radioactivity accumulated in femur,[1]; Femur,0.193 ± 0.108 %ID/g
same,Radioactivity accumulated in heart,[1]; Heart,0.010 ± 0.004 %ID/g
same,Radioactivity accumulated in kidney,[1]; Kidney,0.575 ± 0.199 %ID/g
same,Radioactivity accumulated in large intestine,[1]; Large Intestine,0.020 ± 0.010 %ID/g
same,Radioactivity accumulated in liver,[1]; Liver,0.041 ± 0.010 %ID/g
same,Radioactivity accumulated in lung,[1]; Lung,0.021 ± 0.007 %ID/g
same,Radioactivity accumulated in muscle,[1]; Muscle,0.006 ± 0.002 %ID/g
same,Radioactivity accumulated in pancreas,[1]; Pancreas,0.016 ± 0.008 %ID/g
same,Radioactivity accumulated in small intestine,[1]; Small Intestine,0.012 ± 0.006 %ID/g
same,Radioactivity accumulated in spleen,[1]; Spleen,0.029 ± 0.005 %ID/g
same,Radioactivity accumulated in stomach,[1]; Stomach,0.014 ± 0.005 %ID/g
same,Radioactivity accumulated in tail,[1]; Tail,0.040 ± 0.013 %ID/g
same,% of ^89Zr complexed over total activity,[2]; Day 0,91.5 ± 10.6%
same,% of ^89Zr complexed over total activity,[2]; Day 1,83.0 ± 6.5%
same,% of ^89Zr complexed over total activity,[2]; Day 2,78.1 ± 13.8%
same,% of ^89Zr complexed over total activity,[2]; Day 3 (72 h),73 ± 5%
same,% of ^89Zr complexed over total activity,"[2]; Day 3 (72 h), listed as AAZTHAG",73.0 ± 5.2%
same,Excretion route seen in PET/CT images,[3],hepatobiliary and renal excretion
same,Signal in bones during PET acquisition (release of Zr-89),[3],low signal in bones
same,% of ^89Zr complexed over total activity,[4]; Day 0,30.6 ± 30.3%
same,% of ^89Zr complexed over total activity,[4]; Day 1,4.4 ± 3.9%
same,% of ^89Zr complexed over total activity,[4]; Day 2,2.4 ± 0.1%
same,% of ^89Zr complexed over total activity,[4]; Day 3,3.2 ± 2.6%
same,Time for which the ^89Zr-complex is stable in HS,[5]; human serum,at least 4 h
same,% of ^89Zr complexed over total activity,"[5]; 37 °C, Day 0",92.0 ± 11.3%
same,% of ^89Zr complexed over total activity,"[5]; 37 °C, Day 1",77.7 ± 18.6%
same,% of ^89Zr complexed over total activity,"[5]; 37 °C, Day 2",76.9 ± 15.4%
same,% of ^89Zr complexed over total activity,"[5]; 37 °C, Day 3 (72 h)",87 ± 5%
same,% of ^89Zr complexed over total activity,"[5]; 37 °C, Day 3 (72 h), listed as AAZTHAG",86.4 ± 5.5%
"CN(O)C(=O)CCC(=O)NC1(C)CN(C(=O)CCC(=O)N(C)O)CCN(C(=O)CCC(=O)N(C)O)C1 [^89Zr-AAZTHAS, metal not drawn]",% of ^89Zr complexed over total activity,[2]; Day 0,71.0%
same,% of ^89Zr complexed over total activity,[2]; Day 1,63.3%
same,% of ^89Zr complexed over total activity,[2]; Day 2,62.3%
same,% of ^89Zr complexed over total activity,[2]; Day 3 (72 h),42%
same,% of ^89Zr complexed over total activity,[4]; Day 0,15.1%
same,% of ^89Zr complexed over total activity,[4]; Day 1,1.0%
same,% of ^89Zr complexed over total activity,[4]; Day 2,1.6%
same,% of ^89Zr complexed over total activity,"[5]; 37 °C, Day 0",71.0%
same,% of ^89Zr complexed over total activity,"[5]; 37 °C, Day 1",76.8%
same,% of ^89Zr complexed over total activity,"[5]; 37 °C, Day 2",59.2%
same,% of ^89Zr complexed over total activity,"[5]; 37 °C, Day 3 (72 h)",46%
same,Behaviour of the complex on incubation in HS (precipitation),"[5]; human serum, 37 °C",tends to precipitate over time; also recorded: precipitates
